{"source": "patent US7579338B2", "about": "“Methods and compositions for treating atheroma, tumors and other neoplastic tissues” (Pharmacyclics, Inc., priority 1999, dated 2009)", "key": {"[1]": {"assay": "Production of H2O2 in the presence of ascorbate (colorimetric)", "type": "biochemical", "conditions": "ascorbate plus GdTex, over the time interval of 75 to 200 minutes", "protocol": "In this example, the following stock solutions were prepared: • Stock ascorbic acid (Sigma A 5960) (prepared fresh): 9.98 mg/(10 mL×176.12 mg/mmol)=5.67 mM • Stock GdTex: 5.76 mg/(10.0 mL water×1148 mg/mmol)=502 μM • Stock 4× Buffer: 200 mM HEPES, pH 7.5; 400 mM NaCl These were combined to form the reaction mixture: 200 μL 4× Buffer, 39 μL ascorbic acid Stock, 517.3 μL Water, 43.7 μL GdTex Stock. The reaction mixture was analyzed for hydrogen peroxide as indicated above. As a control, a solution in which complex was not added was prepared as above, with suitable adjustment of the volume of water, and analyzed concurrently.\nMeasurements of the absorbance at 560 nm (with appropriate subtraction of the background absorbance of the reagent at this wavelength) were made of samples taken at the various timepoints. It was noted that the control solution gave a uniform background absorbance which was similar at all time points, whereas the mixture containing GdTex gave an increasing amount of absorbance over time. (Sugars are known to produce high background absorbance in this assay, see manufacturers insert for details.)"}, "[2]": {"system": "MES-SA human uterine cells", "assay": "Proliferation of MES-SA cells with BSO and GdTex (MTT)", "type": "cell-based", "protocol": "The proliferation of MES-SA human uterine cells grown in McCoys 5A medium in the presence of a thiol depleting agent (BSO) or GdTex was used to assess the combined effect of these agents. The protocol outlined in the previous example was followed, with the following changes:\n1. The serially diluted compound was 200 μM BSO (Sigma Chemical, St. Louis, Mo., catalogue no. G1404).\n2. The cells were allowed to incubate in the presence of the two drugs for ca. 72 hours, prior to exchange of media and analysis using the colorimetric (MTT) assay, as described, e.g., in Example 5."}, "[3]": {"system": "MES-SA human uterine cells", "assay": "Proliferation of BSO-treated MES-SA cells with Antimycins A and GdTex (MTT)", "type": "cell-based", "conditions": "BSO pre-treated cells, Antimycins A 0 to 20 μM, GdTex up to 100 μM, 20 h", "protocol": "The proliferation of MES-SA human uterine cells grown in McCoys SA medium in the presence of the thiol depleting agent BSO, with varying concentrations of a mitochondrial inhibitor (Antimycins A) and GdTex was used to assess the combined effect of these agents.\nMaterials and Methods. MES-SA cells were incubated at 37° C. and allowed to adhere to 96-well microtiter plates (2000 cells per well) overnight in 180 μL McCoys 5A containing 10% FBS (Gibco-BRL) and ca. 2% penicillin/streptomycin solution (Sigma). BSO (20 μL) was added to all wells followed by incubation for a further 24 h. The medium was exchanged and Antimycins A was serially diluted at concentrations ranging from 0 to 20 μM and after 0.5 hr metallotexaphyrin complex (up to 100 μM) was added to the test wells to give a final volume of 200 μL, followed by incubation for 20 h, whereupon the medium was exchanged and the plates were incubated an additional 52 h prior to analysis for viability using the MTT assay."}, "MES-SA cells": {"system": "MES-SA cells", "assay": "Radiation sensitization by clonogenic assay", "type": "cell-based, human", "protocol": "The response of MES-SA cells to ionizing radiation was studied using a clonogenic assay format to confirm radiation sensitization potential.\nMaterials and Methods. MES-SA cells (200 to 5,000 cells per dish) were plated in T-25 flasks in 8.5 mL McCoys 5A containing 10% FBS (Gibco-BRL) and ca. 2% penicillin/streptomycin solution (Sigma) and incubated at 37° C. overnight. Stock BSO, ascorbate, GdTex (or a control 5% mannitol) solutions were prepared and 0.5 mL of each added to each flask to give a final volume of 10 mL (final concentrations of BSO, ascorbate and GdTex were 100 μM, 5 μM and 50 μM, respectively) and the cells incubated for 24 hr, whereupon the flasks were irradiated using a 137Cs irradiator (Model 40 Gammacell, J. L. Shepherd & Assoc., San Fernando, Calif.) at a dose rate of 0.805 Gy/min. Medium was removed immediately after irradiation, the cells were washed with fresh medium (5.0 mL) followed by the addition of fresh medium (10 mL) and incubation for an additional 11 days. Colonies were fixed and stained with 1% crystal violet and then counted."}, "[4]": {"assay": "Production of H2O2 in the presence of NADPH (Bioxytech H2O2-560 colorimetric)", "type": "biochemical", "conditions": "NADPH plus 0.05 molar equivalent texaphyrin, no catalase, over the course of 100 minutes", "protocol": "• Stock NADPH (Sigma N 7505) (prepared fresh): 10.14 mg/(10 mL×833.4 mg/mmol)=1.217 mM • Stock LuTex: 5.02 mg/(10.0 mL water×1166 mg/mmol)=[…] • Stock 4× Buffer: 200 mM HEPES, pH 7.5; 400 mM NaCl These were combined to form the reaction mixture: 200 μL 4× Buffer, 200 μL NADPH Stock, 371.8 μL Water, 28.2 μL LuTex Stock. This was analyzed as indicated below. As a control, a solution in which the LuTex complex was not added was prepared as above, with suitable adjustment of the volume of water, and analyzed concurrently. In similar manner, a solution was prepared as above except that 2 μL catalase (Boeringer-Mannheim 106 836, now Roche Molecular Biochemicals, Indianapolis, Ind.) was added, and analyzed concurrently.\nA reaction mixture was prepared containing NADPH, buffer, and water. Texaphyrin catalyst, eg., 0.05 molar equivalent, was added to this reaction mixture, vortexed briefly, and incubated at ambient temperature in the dark. […] The absorbance at 240 nm was used to standardize this solution, which was further diluted and used to construct a standard H2O2 curve at 560 nm in conjunction with the H2O2 calorimetric reagent. […]\nMeasurements of the absorbance at 560 nm (with appropriate subtraction of the background absorbance of the reagent at this wavelength) were made of samples taken at the various time points."}}, "data": [{"smiles": "CC(=O)[O-].CC(=O)[O-].CCc1c(CC)c2cc3nc(cnc4cc(OCCOCCOCCOC)c(OCCOCCOCCOC)cc4ncc4nc(cc1[n-]2)C(CCCO)=C4C)C(C)=C3CCCO.O.[Gd+3]", "note": "[GdTex, motexafin gadolinium]", "values": [{"measurement": "H2O2 produced", "setting": "[1]", "value": "approximately 35 μM"}, {"measurement": "inhibitory effect of GdTex alone", "setting": "[2]; absence of BSO, ca. 72 hours, McCoys 5A medium", "value": "ca. 50%"}, {"measurement": "combined effect of GdTex and BSO on cell growth", "setting": "[2]; increasing amounts of GdTex with BSO, data normalized for GdTex alone", "value": "increase in the cytotoxic dose response of the cells towards BSO"}, {"measurement": "combined effect of GdTex and Antimycins A on cell growth", "setting": "[3]", "value": "increase in the cytotoxic dose response of the cells towards Antimycins A"}, {"measurement": "radiation response, co-administration", "setting": "MES-SA cells; 50 μM GdTex and 100 μM BSO co-administered, 24 h prior to irradiation", "value": "radiation response significantly greater than the sum of the responses obtained from them individually"}, {"measurement": "effect on clonogenic survival as a function of radiation, single agent", "setting": "MES-SA cells; 50 μM GdTex or 100 μM BSO for 24 h prior to irradiation, ascorbate-containing medium", "value": "relatively small effect on clonogenic survival"}]}, {"smiles": "CC(=O)[O-].CC(=O)[O-].CCc1c(CC)c2cc3nc(cnc4cc(OCCOCCOCCOC)c(OCCOCCOCCOC)cc4ncc4nc(cc1[n-]2)C(CCCO)=C4C)C(C)=C3CCCO.O.[Lu+3]", "note": "[LuTex, motexafin lutetium]", "values": [{"measurement": "H2O2 produced", "setting": "[4]", "value": "Approximately 40 μM"}]}]}
